According to PMC3892729 (ACS Medicinal Chemistry Letters, 2013):
“Also recorded” adds a separate entry of the source.

Assays:
human β2 adrenoceptor [1] = target: T1, human β2 adrenoceptor (Homo sapiens, UniProt P07550); test: SPR binding to captured β2 adrenoceptor, MNG detergent; conditions: for loss in activity / reduction of affinity versus parent fragment: SPR KD, MNG, I and J versus A, L versus F
human β2 adrenoceptor [2] = target: T1, human β2 adrenoceptor; test: SPR binding to captured β2 adrenoceptor, DDM detergent; conditions: read-out: SPR ka

T1 sequence (P07550 whole entry, the tested form may be a part): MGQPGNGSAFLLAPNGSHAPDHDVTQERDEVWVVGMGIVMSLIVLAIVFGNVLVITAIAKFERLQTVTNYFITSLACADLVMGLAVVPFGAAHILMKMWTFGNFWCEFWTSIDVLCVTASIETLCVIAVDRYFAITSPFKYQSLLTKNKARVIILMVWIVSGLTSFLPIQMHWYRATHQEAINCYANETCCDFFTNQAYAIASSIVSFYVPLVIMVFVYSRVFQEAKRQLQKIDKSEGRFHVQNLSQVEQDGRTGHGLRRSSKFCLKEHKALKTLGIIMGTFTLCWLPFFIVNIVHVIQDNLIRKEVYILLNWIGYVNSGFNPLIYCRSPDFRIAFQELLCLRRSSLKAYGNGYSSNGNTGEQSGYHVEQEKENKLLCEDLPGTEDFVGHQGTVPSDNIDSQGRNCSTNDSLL

Row | Compound | loss in activity / reduction of affinity versus parent fragment (human β2 adrenoceptor [1]) [fold] | other results
1 | Cc1ccc2nc(C(F)(F)F)cc(N3CCC(F)(F)CC3)c2c1 [J] | 2000 | –
2 | Cc1ccc2nc(C(F)(F)F)cc(N3CCOCC3)c2c1 [K] | – | KD (result in words) (human β2 adrenoceptor [1]; MNG detergent): ablation of activity; also recorded: no binding
3 | CC(Cc1ccc(O)cc1)NCC(O)c1cc(O)cc(O)c1 (centres unmarked) [fenoterol] | – | kon (human β2 adrenoceptor [2]): 545000 M⁻¹ s⁻¹
4 | Cc1ccc2nc(C(F)(F)F)cc(N3CCN(C)CC3)c2c1 [I] | 50 | –
5 | c1cc(N2CCNCC2)ccn1 [L] | 400 | –
